Test results from ChEMBL document CHEMBL5038589, “Design, Synthesis, and Structure-Activity Relationship of N-Aryl-N'-(thiophen-2-yl)thiourea Derivatives as Novel and Specific Human TLR1/2 Agonists for Potential Cancer Immunotherapy” (J Med Chem, 2021).
The source made the active and inactive calls. The calls are words filed in the database; no cut-off is given here.

Columns and labels:
[1] = biological target: Toll-like receptor 3 (Homo sapiens) (UniProt O15455); test: Agonist activity at TLR3 in HEK-Blue hTLR3 cells at 0.1 to 100 uM incubated for 24 hrs by Quanti-Blue based SEAP assay; type: cell-based; conditions: dose 0.1-100 µM
Toll-like receptor 3 (Homo sapiens), sequence (O15455 whole entry): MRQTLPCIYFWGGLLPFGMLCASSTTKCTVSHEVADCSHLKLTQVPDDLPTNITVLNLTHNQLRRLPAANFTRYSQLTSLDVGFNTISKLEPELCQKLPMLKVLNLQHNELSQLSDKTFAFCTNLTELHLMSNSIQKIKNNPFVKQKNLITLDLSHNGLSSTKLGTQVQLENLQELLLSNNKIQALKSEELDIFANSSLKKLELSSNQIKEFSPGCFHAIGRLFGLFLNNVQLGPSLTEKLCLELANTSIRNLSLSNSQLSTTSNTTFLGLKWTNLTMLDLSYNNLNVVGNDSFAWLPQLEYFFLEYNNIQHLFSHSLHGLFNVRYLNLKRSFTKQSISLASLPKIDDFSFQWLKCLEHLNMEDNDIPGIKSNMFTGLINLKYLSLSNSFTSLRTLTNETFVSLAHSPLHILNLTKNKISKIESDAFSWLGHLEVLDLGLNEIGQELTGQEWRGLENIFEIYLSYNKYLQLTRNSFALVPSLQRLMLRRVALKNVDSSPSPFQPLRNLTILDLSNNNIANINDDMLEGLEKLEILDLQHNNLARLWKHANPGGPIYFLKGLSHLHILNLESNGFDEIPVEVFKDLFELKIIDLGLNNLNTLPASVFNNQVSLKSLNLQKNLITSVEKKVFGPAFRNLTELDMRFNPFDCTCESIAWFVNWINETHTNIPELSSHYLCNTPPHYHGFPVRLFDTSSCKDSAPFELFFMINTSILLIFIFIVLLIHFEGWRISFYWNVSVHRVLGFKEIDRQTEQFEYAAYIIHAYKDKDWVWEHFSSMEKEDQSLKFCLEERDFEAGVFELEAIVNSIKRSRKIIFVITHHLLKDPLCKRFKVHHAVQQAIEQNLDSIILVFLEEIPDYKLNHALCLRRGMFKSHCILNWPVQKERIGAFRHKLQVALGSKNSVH

[2] = biological target: Toll-like receptor 4 (Homo sapiens) (UniProt O00206); test: Agonist activity at TLR4 in HEK-Blue hTLR4 cells at 0.1 to 100 uM incubated for 24 hrs by Quanti-Blue based SEAP assay; type: cell-based; conditions: dose 0.1-100 µM
[3] = biological target: Toll-like receptor 7 (Homo sapiens) (UniProt Q9NYK1); test: Agonist activity at TLR7 in HEK-Blue hTLR7 cells at 0.1 to 100 uM incubated for 24 hrs by Quanti-Blue based SEAP assay; type: cell-based; conditions: dose 0.1-100 µM
[4] = biological target: Toll-like receptor 8 (Homo sapiens) (UniProt Q9NR97); test: Agonist activity at TLR8 in HEK-Blue hTLR8 cells at 0.1 to 100 uM incubated for 24 hrs by Quanti-Blue based SEAP assay; type: cell-based; conditions: dose 0.1-100 µM
[5] = biological target: Toll-like receptor 1 (Homo sapiens) (UniProt Q15399); test: Agonist activity at TLR1 in HEK-Blue hTLR2 cells at 0.2 uM incubated for 24 hrs in presence of anti-hTLR1-IgG antibodies measured by Quanti-Blue based SEAP assay; type: cell-based; conditions: filed as agonist
Toll-like receptor 1 (Homo sapiens), sequence (Q15399 whole entry): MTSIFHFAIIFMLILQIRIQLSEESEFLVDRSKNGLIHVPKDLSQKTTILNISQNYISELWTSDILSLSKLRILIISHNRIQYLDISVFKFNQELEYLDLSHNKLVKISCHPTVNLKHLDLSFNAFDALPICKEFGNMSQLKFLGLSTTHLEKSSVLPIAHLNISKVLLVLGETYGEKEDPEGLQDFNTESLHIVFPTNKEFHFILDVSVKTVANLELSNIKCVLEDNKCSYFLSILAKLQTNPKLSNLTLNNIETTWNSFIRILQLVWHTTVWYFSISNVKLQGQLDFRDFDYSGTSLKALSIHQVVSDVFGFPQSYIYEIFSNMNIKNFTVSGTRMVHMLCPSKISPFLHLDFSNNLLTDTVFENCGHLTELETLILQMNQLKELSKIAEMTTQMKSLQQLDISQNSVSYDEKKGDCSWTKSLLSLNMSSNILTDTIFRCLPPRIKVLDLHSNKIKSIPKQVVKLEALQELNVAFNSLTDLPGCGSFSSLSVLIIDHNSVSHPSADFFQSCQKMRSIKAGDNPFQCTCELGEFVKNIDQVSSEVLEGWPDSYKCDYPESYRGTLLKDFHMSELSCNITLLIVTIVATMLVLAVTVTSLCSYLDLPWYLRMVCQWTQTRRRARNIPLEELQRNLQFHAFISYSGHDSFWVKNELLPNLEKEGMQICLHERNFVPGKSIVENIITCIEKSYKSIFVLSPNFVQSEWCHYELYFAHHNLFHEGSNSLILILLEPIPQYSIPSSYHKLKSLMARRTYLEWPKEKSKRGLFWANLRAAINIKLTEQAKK

[6] = biological target: T1, Toll-like receptor 2 (Homo sapiens, UniProt O60603); test: Agonist activity at TLR2 in HEK-Blue hTLR2 cells at 0.2 uM incubated for 24 hrs in presence of anti-hTLR2-IgA antibodies measured by Quanti-Blue based SEAP assay; type: cell-based; conditions: filed as agonist
T1 sequence (O60603 whole entry): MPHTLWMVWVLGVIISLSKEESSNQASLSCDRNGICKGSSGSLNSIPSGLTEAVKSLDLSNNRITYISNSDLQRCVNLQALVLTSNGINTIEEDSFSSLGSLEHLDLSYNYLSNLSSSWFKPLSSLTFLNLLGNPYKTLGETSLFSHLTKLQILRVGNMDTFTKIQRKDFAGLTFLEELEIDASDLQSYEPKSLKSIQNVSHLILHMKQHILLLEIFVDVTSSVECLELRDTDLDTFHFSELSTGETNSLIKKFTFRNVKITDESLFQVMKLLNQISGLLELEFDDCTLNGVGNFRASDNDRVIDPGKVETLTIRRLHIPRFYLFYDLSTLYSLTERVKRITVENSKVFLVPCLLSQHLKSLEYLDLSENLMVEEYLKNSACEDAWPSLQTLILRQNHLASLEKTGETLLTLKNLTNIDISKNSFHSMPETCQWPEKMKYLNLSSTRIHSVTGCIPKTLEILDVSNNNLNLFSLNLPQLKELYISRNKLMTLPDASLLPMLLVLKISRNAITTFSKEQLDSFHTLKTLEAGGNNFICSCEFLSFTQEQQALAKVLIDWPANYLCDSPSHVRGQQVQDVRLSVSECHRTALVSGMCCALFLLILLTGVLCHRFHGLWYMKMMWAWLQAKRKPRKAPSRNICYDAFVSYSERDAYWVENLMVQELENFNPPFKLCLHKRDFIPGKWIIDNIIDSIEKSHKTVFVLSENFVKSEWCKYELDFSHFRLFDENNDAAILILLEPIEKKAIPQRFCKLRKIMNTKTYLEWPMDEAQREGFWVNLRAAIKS

[7] = Cytotoxicity against human PBMC upto 100 uM incubated for 24 hrs by CCK-8 assay; type: toxicity, cell-based
[8] = Cytotoxicity against HEK-Blue TLR2 cells incubated for 24 hrs by CCK-8 assay; type: toxicity, cell-based, HEK-Blue hTLR2; conditions: human
[9] = Selectivity index, ratio of CC50 for HEK-Blue TLR2 cells to EC50 for agonist activity at TLR2 in HEK-Blue TLR2 cells; type: functional
[10] = test system: HEK-Blue hTLR2; test: Upregulation of TLR2 expression in HEK-Blue TLR2 cells incubated for 24 hrs by Western blot analysis; type: functional, cell-based; conditions: Homo sapiens, dose 0.01-50 µM
[11] = test system: THP-1; test: Upregulation of TLR2 expression in human THP-1 cells at 0.01 to 50 uM incubated for 24 hrs by Western blot analysis; type: functional, cell-based; conditions: dose 0.01-50 µM
[12] = test system: THP-1; test: Induction of TNFalpha secretion in TLR2 knock down human THP-1 cells at 20 to 40 uM incubated for 24 hrs by ELISA method; type: functional, cell-based; conditions: dose 20-40 µM
[13] = biological target: T1, Toll-like receptor 2; test: Binding affinity to recombinant human TLR2 expressed in H5 cells by surface plasmon resonance method
[14] = test system: THP-1; test: Upregulation of TLR6 expression in human THP-1 cells at 20 uM by immunoprecipitation method; type: functional, cell-based
[15] = biological target: Toll-like receptor 1/2 (Homo sapiens) (UniProt O60603+Q15399); test: Agonist activity at TLR1/TLR2 in human THP-1 cells assessed as induction of TLR1/TLR2 dimerization at 20 uM incubated for 12 hrs by coimmunoprecipitation method; type: cell-based; conditions: filed as agonist
[16] = test system: THP-1; test: Agonist activity at TLR2/MyD88 in human THP-1 cells assessed as induction of TLR2/MyD88 complex formation at 20 uM incubated for 12 hrs by coimmunoprecipitation method; type: cell-based; conditions: filed as agonist
[17] = test system: THP-1; test: Upregulation of MyD88 expression in human PMA-differentiated THP-1 cells assessed as induction of IKKbeta phosphorylation at 10 uM incubated for 2 hrs by Western blot analysis; type: functional, cell-based
[18] = test system: THP-1; test: Upregulation of MyD88 expression in human PMA-differentiated THP-1 cells assessed as induction of p38 phosphorylation at 10 uM incubated for 2 hrs by Western blot analysis; type: functional, cell-based
[19] = test system: THP-1; test: Upregulation of MyD88 expression in human PMA-differentiated THP-1 cells assessed as downregulation of IkappaBalpha at 10 uM incubated for 2 hrs by Western blot analysis; type: functional, cell-based
[20] = test system: THP-1; test: Induction of ERK phosphorylation in human PMA-differentiated THP-1 cells at 10 uM incubated for 2 hrs by Western blot analysis; type: functional, cell-based
[21] = test system: PBMC; test: Induction of TNFalpha secretion in human PBMC incubated for 24 hrs by ELISA method; type: functional, cell-based; conditions: dose 0.01-10 µM
[22] = test system: Macrophage; test: Induction of TNFalpha secretion in TLR2-/- C57BL/6 mouse peritoneal macrophages at 0.01 to 10 uM incubated for 24 hrs by ELISA method; type: functional, cell-based; conditions: dose 0.01-10 µM
[23] = test system: Macrophage; test: Induction of IL-6 secretion in wild-type C57BL/6 mouse peritoneal macrophages at 0.01 to 10 uM incubated for 24 hrs by ELISA method; type: functional, cell-based; conditions: dose 0.01-10 µM
[24] = test system: RAW264.7; test: Induction of nitric oxide release in mouse RAW264.7 cells at 0.01 to 10 uM incubated for 24 hrs by Griess reagent based assay; type: functional, cell-based; conditions: dose 0.01-10 µM
[25] = biological target: Nuclear factor NF-kappa-B complex (Homo sapiens) (UniProt Q00653+P19838+Q04206); test: Activation of NF-kappaB signalling in HEK-Blue hTLR2 cells at 10 uM in presence of triptolide; type: cell-based
Nuclear factor NF-kappa-B complex (Homo sapiens), sequence (P19838 whole entry, looked up): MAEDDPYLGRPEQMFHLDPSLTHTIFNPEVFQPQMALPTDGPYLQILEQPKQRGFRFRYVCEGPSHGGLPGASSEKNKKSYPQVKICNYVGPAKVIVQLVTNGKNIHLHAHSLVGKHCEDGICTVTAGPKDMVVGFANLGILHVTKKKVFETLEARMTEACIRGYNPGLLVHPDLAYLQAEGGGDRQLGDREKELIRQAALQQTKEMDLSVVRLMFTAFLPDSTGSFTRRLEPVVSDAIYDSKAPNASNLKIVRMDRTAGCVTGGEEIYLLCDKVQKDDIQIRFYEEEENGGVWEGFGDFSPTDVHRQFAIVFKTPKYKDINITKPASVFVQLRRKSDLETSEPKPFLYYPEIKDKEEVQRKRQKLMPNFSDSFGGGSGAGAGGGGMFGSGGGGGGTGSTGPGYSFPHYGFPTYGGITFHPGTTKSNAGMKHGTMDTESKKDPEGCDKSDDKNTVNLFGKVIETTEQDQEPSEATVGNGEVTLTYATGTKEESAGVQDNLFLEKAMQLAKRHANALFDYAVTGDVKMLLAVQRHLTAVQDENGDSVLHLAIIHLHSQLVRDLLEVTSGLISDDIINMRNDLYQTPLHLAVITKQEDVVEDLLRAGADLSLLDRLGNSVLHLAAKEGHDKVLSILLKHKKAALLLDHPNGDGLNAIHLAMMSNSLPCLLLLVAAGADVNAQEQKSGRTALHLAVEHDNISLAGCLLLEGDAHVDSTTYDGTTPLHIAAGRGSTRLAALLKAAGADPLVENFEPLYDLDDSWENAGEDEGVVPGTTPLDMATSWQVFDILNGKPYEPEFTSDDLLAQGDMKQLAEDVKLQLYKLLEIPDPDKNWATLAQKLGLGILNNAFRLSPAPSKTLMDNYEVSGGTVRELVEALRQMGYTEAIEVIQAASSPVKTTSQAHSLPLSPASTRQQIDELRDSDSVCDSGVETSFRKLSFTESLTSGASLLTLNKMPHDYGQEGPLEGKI
Nuclear factor NF-kappa-B complex (Homo sapiens), sequence (Q00653 whole entry, looked up): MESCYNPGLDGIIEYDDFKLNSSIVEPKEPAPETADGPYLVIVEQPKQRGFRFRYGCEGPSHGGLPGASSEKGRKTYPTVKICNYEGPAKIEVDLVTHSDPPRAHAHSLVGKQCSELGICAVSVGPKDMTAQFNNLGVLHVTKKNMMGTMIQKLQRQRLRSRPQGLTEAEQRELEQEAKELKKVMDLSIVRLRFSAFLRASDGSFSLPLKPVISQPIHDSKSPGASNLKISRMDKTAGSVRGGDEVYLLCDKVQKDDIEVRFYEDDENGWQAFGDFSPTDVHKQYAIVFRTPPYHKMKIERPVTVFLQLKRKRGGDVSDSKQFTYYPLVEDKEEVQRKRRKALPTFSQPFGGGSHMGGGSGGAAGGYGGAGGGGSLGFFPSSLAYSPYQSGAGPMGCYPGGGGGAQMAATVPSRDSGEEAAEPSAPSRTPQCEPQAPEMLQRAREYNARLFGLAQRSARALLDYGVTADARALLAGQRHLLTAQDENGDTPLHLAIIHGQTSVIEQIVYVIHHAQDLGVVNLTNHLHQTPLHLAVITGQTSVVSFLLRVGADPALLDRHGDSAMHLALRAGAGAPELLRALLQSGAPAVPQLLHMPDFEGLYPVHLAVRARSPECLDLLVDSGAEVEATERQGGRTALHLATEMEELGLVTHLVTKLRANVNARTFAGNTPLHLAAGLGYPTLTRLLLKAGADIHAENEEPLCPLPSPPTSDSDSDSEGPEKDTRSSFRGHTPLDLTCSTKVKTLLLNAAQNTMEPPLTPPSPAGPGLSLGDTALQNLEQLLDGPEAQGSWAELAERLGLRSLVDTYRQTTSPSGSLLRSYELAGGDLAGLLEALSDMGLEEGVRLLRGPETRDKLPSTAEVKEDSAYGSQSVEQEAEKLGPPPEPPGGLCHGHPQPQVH
Nuclear factor NF-kappa-B complex (Homo sapiens), sequence (Q04206 whole entry, looked up): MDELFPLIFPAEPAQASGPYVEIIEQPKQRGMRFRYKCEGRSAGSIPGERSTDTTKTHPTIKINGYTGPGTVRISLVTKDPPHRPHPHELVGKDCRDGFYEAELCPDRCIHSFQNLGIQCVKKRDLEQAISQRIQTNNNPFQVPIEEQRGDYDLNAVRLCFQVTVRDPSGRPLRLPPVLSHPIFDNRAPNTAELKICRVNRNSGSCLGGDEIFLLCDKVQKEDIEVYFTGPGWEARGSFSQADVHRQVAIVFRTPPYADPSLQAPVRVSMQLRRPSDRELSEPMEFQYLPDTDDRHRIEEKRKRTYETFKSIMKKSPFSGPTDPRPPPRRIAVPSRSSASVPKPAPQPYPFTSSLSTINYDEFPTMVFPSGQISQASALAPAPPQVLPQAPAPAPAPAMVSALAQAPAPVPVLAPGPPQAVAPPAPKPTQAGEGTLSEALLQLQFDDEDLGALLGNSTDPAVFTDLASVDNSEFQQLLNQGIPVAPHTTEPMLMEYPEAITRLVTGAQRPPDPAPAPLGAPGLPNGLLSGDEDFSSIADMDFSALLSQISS

[26] = test system: CD3-positive T cell; test: Immunostimulatory activity in human CD3+ T cells at 0.1 to 10 uM incubated for 48 hrs by flow cytometry analysis; type: functional, cell-based; conditions: dose 0.1-10 µM
[27] = test system: CD4+ve Th; test: Immunostimulatory activity in human CD4+ T cells at 0.1 to 10 uM incubated for 48 hrs by flow cytometry analysis; type: functional, cell-based; conditions: dose 0.1-10 µM
[28] = test system: Monocyte; test: Immunostimulatory activity in human monocytes assessed as fold increase at 0.1 to 10 uM incubated for 48 hrs by flow cytometry analysis; type: functional; conditions: dose 0.1-10 µM
[29] = test system: B cell; test: Immunostimulatory activity in human B cells assessed as fold increase at 0.1 to 10 uM incubated for 48 hrs by flow cytometry analysis; type: functional; conditions: dose 0.1-10 µM
[30] = test system: B-cell line; test: Immunostimulatory activity in mouse C57 spleen B cells in assessed as fold increase at 0.1 to 10 uM incubated for 48 hrs by flow cytometry analysis; type: functional, cell-based; conditions: dose 0.1-10 µM
[31] = test system: HCT-116; test: Induction of apoptosis in human HCT-116 cells cocultured with PMA-differentiated THP-1 cells assessed as increase in annexin-V positive cells at 10 uM measured after 24 hrs by annexin V-FITC/PI staining based flow cytometry (reference value: 16.23%); type: functional
[32] = test system: HCT-116; test: Induction of apoptosis in human HCT-116 cells cocultured with PMA-differentiated THP-1 cells assessed as late apoptotic cells at 10 uM measured after 24 hrs using annexin V-FITC/PI staining based flow cytometry; type: functional
[33] = test system: MCF7; test: Induction of apoptosis in human MCF7 cells cocultured with PMA-differentiated THP-1 cells assessed as late apoptotic cells at 10 uM measured after 24 hrs by annexin V-FITC/PI staining based flow cytometry (reference value: 5.41 %); type: functional
[34] = test system: MCF7; test: Induction of apoptosis in human MCF7 cells cocultured with PMA-differentiated THP-1 cells assessed as early apoptotic cells at 10 uM measured after 24 hrs by annexin V-FITC/PI staining based flow cytometry (reference value: 7.87 %); type: functional
[35] = test system: MCF7; test: Induction of apoptosis in human MCF7 cells upto 100 uM by microplate reader analysis; type: functional, cell-based; conditions: dose microM <=100

## CC(C)OC(=O)c1c(NC(=S)Nc2ccc(F)c3ccccc23)sc2c1CCC2
[1]
  Activity: inactive
[2]
  Activity: inactive
[3]
  Activity: inactive
[4]
  Activity: inactive
[5]
  Activity: Active
[6]
  Activity: Active
[7]
  Activity: Non-Toxic
[8]
  CC50 at 24 h: > 100000 nM
[9]
  Ratio CC50/EC50: >3200
[10]
  Activity: Dose-Dependent Effect
[11]
  Activity: Active
[12]
  Activity: inactive
[13]
  Kd: 53 nM
[14]
  Activity: inactive
[15]
  Activity: Active
[16]
  Activity: Active
[17]
  Activity: Active
[18]
  Activity: Active
[19]
  Activity: Active
[20]
  Activity: inactive
[21]
  Activity: Dose-Dependent Effect
[22]
  Activity: inactive
[23]
  Activity: inactive
[24]
  Activity: inactive
[25]
  Activity: inactive
[26]
  Activity: Active
[27]
  Activity: Active
[28]
  fold change (FC): 2
[29]
  fold change (FC): 7
[30]
  Activity: inactive
[31]
  Activity: 25.85%
[32]
  Activity: 14.3%
[33]
  Activity: 25%
[34]
  Activity: 16.4%
[35]
  Activity: inactive
